# Assays:
# [1] = system: human colon carcinoma cell line, HT-29; assay: HT-29 tumor cell growth inhibition, Sulforhodamine B (SRB) protein binding assay, six days continuous exposure; type: cell-based; conditions: for SRB Binding (A550): vehicle 0.801 ± 0.137
# Procedure: Compound No. 17, 1-(3-chloroanilino)-4-phenylphthalazine, was assayed for its effect on the human colon carcinoma cell line, HT-29 obtained from ATCC, (Rockville, Md.) to ascertain the degree of growth inhibition. Growth inhibition of this cell line is thought to be indicative of a benefit on precancerous lesions and neoplasms. The cell line and growth assay employed for these experiments is well characterized, and is used by the United States National Cancer Institute in its screening program for new anti-cancer drugs.
# Drug stock solutions were made in 100% DMSO then diluted with RPMI media for cell culture testing. All drug solutions were prepared fresh on the day of testing. The cultured cells were obtained at passage #118 and grown in RPMI media supplemented with 5% fetal calf serum, and 2 mM glutamine, 100 U/ml penicillin, 100 U/ml streptomycin, and 0.25 μg/ml amphotericin. The cultures were maintained in a humidified atmosphere of 95% air and 5% CO2 at 37° C. The cultures were passaged at preconfluent densities using a solution of 0.05% trypsin and 0.53 mM EDTA. All experiments involved HT-29 cells between passages 120 and 140. Cells were plated at the following densities to obtain cultures used for the experiments: 500 cells/well for 96 well flat-bottom microtiter plates, 1×10^6 cells per 25 cm^2 flask, or 4×10^6 cells per 75 cm^2 flask.
# Tumor cell growth inhibition was assessed using the Sulforhodamine B (SRB) protein binding assay. In this assay, tumor cells were plated in 96-well plates and treated with drug-containing media for six days (continuous exposure). For each plate, 6 wells were designated as no treatment controls, six wells as vehicle (0.1% DMSO) controls, and the remaining wells for drug dilutions with six wells per drug concentration. At the end of the exposure period, the cells were fixed and stained with sulforhodamine B, a protein binding dye. The dye was then solubilized, and the optical density of the resulting solution was determined on a 96-well plate reader. The mean dye intensity of the treated wells was then divided by the mean dye intensity in the control wells (6 wells of each) to determine the effect of the drug on the cells. Dye intensity is proportional to the number of cells or amount of protein per well. The resultant "percent inhibition" value then represents the degree of growth inhibition caused by the drug in Table 4 below.
# [2] = system: HT-29 cells; assay: Apoptosis and necrosis by fluorescent microscopy (acridine orange and ethidium bromide) in confluent HT-29 cultures; type: cell-based, human
# Procedure: Drug stock solutions were made in 100% DMSO then diluted with RPMI media for cell culture testing. All drug solutions were prepared fresh on the day of testing. The cultured cells were obtained at passage #118 and grown in RPMI media supplemented with 5% fetal calf serum, and 2 mM glutamine, 100 U/ml penicillin, 100 U/ml streptomycin, and 0.25 μg/ml amphotericin. The cultures were maintained in a humidified atmosphere of 95% air and 5% CO2 at 37° C. The cultures were passaged at preconfluent densities using a solution of 0.05% trypsin and 0.53 mM EDTA. All experiments involved HT-29 cells between passages 120 and 140. Cells were plated at the following densities to obtain cultures used for the experiments: 500 cells/well for 96 well flat-bottom microtiter plates, 1×10^6 cells per 25 cm^2 flask, or 4×10^6 cells per 75 cm^2 flask. Apoptosis and necrosis were measured using an assay which allowed for the simultaneous measurement of both types of cell death based on morphological characteristics of apoptotic cells (i.e., condensed chromatin) and membrane permeability. Drug preparation and cell culture conditions were the same as above. Confluent cultures were assayed for apoptosis and necrosis by fluorescent microscopy following labeling with acridine orange and ethidium bromide. Floating and attached cells were collected by trypsinization and washed three times in PBS. One ml aliquots of 1×10^6 cells were centrifuged (300 g). The pellet was resuspended in 25 μl media and 1 μl of a dye mixture containing 100 μg/ml acridine orange and 100 μg/ml ethidium bromide prepared in PBS and mixed gently. Ten μl of mixture was placed on a microscope slide and with a 22 mm^2 coverslip and examined under 40 x dry objectives using epilumination and filter combination. An observer blinded to the identity of the treatments scored at least 100 cells per sample. Apoptotic cells were identified by nuclear condensation of chromatin stained by the acridine orange or ethidium bromide. Necrotic cells were identified by uniform labeling of the cell with ethidium bromide. Data was also obtained, under the same procedure above, for the percent of apoptotic cells induced by treatment with varying concentrations of compound No. 17.
# [3] = system: mammary lesions (mouse mammary gland organ culture); assay: DMBA-induced mammary lesions in mouse mammary gland organ culture; type: cell-based, mouse (female BALB/c); conditions: for Glands with Lesions: vehicle 11 of 15; for Percent Incidence (mammary lesions): vehicle 73.33
# Procedure: Compound No. 17 was also tested for its ability to inhibit the incidence of mammary lesions in an organ culture system. This mouse mammary gland organ culture technique has been successfully used by other investigators to study the effects of known cancer-chemopreventative agents such as retinoids and selenium.
# Female BALB/c mice, 28 days old, were treated for nine days with a combination of […] of estradiol and 1 mg of progesterone daily, in order to prime the glands to be responsive to hormones in vitro. The animals were sacrificed and thoracic mammary glands were excised aseptically and incubated for ten days in growth media supplemented with growth-promoting hormones: insulin, prolactin, and hydrocortisone, at 5 μg/ml each and aldosterone at 1 μg/ml. A twenty-four hour treatment of 7,12-dimethylbenz(a)anthracene (DMBA, 2 μg/ml) was carried out between days three and four to induce the formation of mammary lesions. Fully developed glands were deprived of prolactin, hydrocortisone, and aldosterone for 14 days, resulting in the regression of the glands but not the mammary lesions.
# In order to evaluate the effects of Compound No. 17, it was dissolved in DMSO and added to the culture media supplemented for the duration of the culture period. At the end of the culture period, the glands were fixed in 10%. formalin, stained with alum carmine, and mounted on glass slides. The incidence of forming mammary lesions is the ratio of the glands with mammary lesions and glands […]. The incidence of mammary lesions in compound 17 treated glands was compared with that of the untreated glands.
# The extent of the area occupied by the mammary lesions was quantitated by projecting an image of the gland onto a digitation pad. The area covered by the gland was traced on the pad and considered as 100% of the area. The space covered by each of the unregressed structures was also outlined on the digitization pad and quantitated by the computer.
compound,measurement,setting,value
"Clc1cccc(Nc2nnc(-c3ccccc3)c3ccccc23)c1 [Compound No. 17, 1-(3-Chloroanilino)-4-phenylphthalazine]",SRB Binding (A550),[1]; 1 μM,0.851 ± 0.059
same,SRB Binding (A550),[1]; 10 μM,0.007 ± 0.003
same,SRB Binding (A550),[1]; 100 μM,0.009 ± 0.010
same,inhibition at 1 µM,"[1]; Homo sapiens, 144 h, 1 μM",0%
same,inhibition at 10 µM,"[1]; Homo sapiens, 144 h, 10 μM",100%
same,inhibition at 100 µM,"[1]; Homo sapiens, 144 h, 100 μM",100%
same,% Apoptotic Cells,"[2]; 1 μM (Table 6), 0 μM gives 4%",12%
same,% Apoptotic Cells,"[2]; 5 μM (Table 6), 0 μM gives 4%",13%
same,% Apoptotic Cells,"[2]; 10 μM (Table 6), 0 μM gives 4%",7%
same,% Apoptotic Cells,"[2]; 25 μM (Table 6), 0 μM gives 4%",8%
same,% Necrotic Cells,"[2]; 40 μM, HT-29, vehicle 2%, none 5%",6%
same,% Apoptotic Cells,"[2]; 40 μM, HT-29, vehicle 9%, none 7%",83%
same,% Apoptotic Cells,"[2]; 50 μM (Table 6), 0 μM gives 4%",78%
same,Glands with Lesions,"[3]; 10 μM, of 13 glands",7
same,Percent Incidence (mammary lesions),[3]; 10 μM,53.85%
same,Glands with Lesions,"[3]; 100 μM, of 15 glands",4
same,Percent Incidence (mammary lesions),[3]; 100 μM,26.67%
same,inhibition at 10 µM,"[3]; Mus musculus, 10 μM, read-out: Percent Inhibition (mammary lesions)",27%
same,inhibition at 100 µM,"[3]; Mus musculus, 100 μM, read-out: Percent Inhibition (mammary lesions)",64%

# Source: patent US6207666A, “Method for treating a patient having precancerous lesion with 4-phenylphthalazine derivatives” (Cell Pathways, Inc., priority 1998, dated 2001)
